Several values for one entry are separate records, joined by “and”; a condition that tells them apart may be missing. Equal entries are not always repeated.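 The compound was tested at five concentrations on cells cultured in 96-well plates, with a 48-hour exposure period. The concentration for 50% growth inhibition is given as GI50. TGI: total growth inhibition.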
Experiments:
Assay in all cases: NCI anticancer screen, dose series, 48 h
786-0 renal = tested on: 786-0 renal
ACHN renal = tested on: ACHN renal
CAKI-1 renal = tested on: CAKI-1 renal
EKVX NSCLC = tested on: EKVX NSCLC
HCT-15 colon = tested on: HCT-15 colon
NCI-H522 lung = tested on: NCI-H522 lung
OVCAR-8 ovarian = tested on: OVCAR-8 ovarian
SF-539 CNS = tested on: SF-539 CNS
SK-OV-3 ovarian = tested on: SK-OV-3 ovarian
SN12C renal = tested on: SN12C renal

Row | SMILES | TGI (786-0 renal) | TGI (ACHN renal) | TGI (CAKI-1 renal) | TGI (EKVX NSCLC) | TGI (HCT-15 colon) [µM] | TGI (NCI-H522 lung) | TGI (OVCAR-8 ovarian) | TGI (SF-539 CNS) | TGI (SK-OV-3 ovarian) | TGI (SN12C renal) | GI50 (786-0 renal) | GI50 (ACHN renal) | GI50 (CAKI-1 renal) | GI50 (EKVX NSCLC) [µM] | GI50 (HCT-15 colon) [µM] | GI50 (NCI-H522 lung) | GI50 (OVCAR-8 ovarian) | GI50 (SF-539 CNS) | GI50 (SK-OV-3 ovarian) | GI50 (SN12C renal)
1 | COc1cc(N=Nc2cccc(S(N)(=O)=O)c2)c2ccccc2c1N | 26.9 µM | 30.3 µM | 20.8 µM | 27.4 µM | 49.5 | 30.6 µM | 56 µM | 9.19 µM | 30.7 µM | 26.1 µM | – | – | – | – | – | – | – | – | – | –
2 | O=C1C2=C(c3ccccc31)C(c1ccc(Cl)cc1)NC(=S)N2 (stereo not drawn) | 34 µM | > 100 µM | 78.3 µM | > 100 µM | 35.9 | 56.2 µM | 38.4 µM | 29.6 µM | > 100 µM | 40.3 µM | – | – | – | – | – | – | – | – | – | –
3 | CCCCN(CCCC)C(=O)C(=O)CC(=O)/C=C/c1ccccc1 | > 100 µM | > 100 µM | > 100 µM | > 100 µM | > 100 | > 100 µM | > 100 µM | > 100 µM | > 100 µM | > 100 µM | – | – | – | – | – | – | – | – | – | –
4 | N#Cc1ncc(N2C(=O)C3(CCC3)N(c3ccc(OC4CCNCC4)nc3)C2=S)cc1C(F)(F)F | 26.8 µM | 32 µM | 28.9 µM | 46.4 µM | 27.8 | 35.5 µM | 76.2 µM | 30 µM | > 100 µM | 36 µM | 13.6 µM | 17.7 µM | 14 µM | 18 | 13.1 | 18.1 µM | 25.1 µM | 15.4 µM | 60.5 µM | 15.8 µM
5 | N#CC1CCc2c(c(-c3cn[nH]c3C(F)(F)F)nc3c(F)cc4[nH]ncc4c23)C1 (stereo not drawn) | 59.4 µM | 75.1 µM | > 100 µM | 28.2 µM | > 100 | 8.61 µM | > 100 µM | 15.4 µM | 10.5 µM | 68.4 µM | 10.9 µM | 8.21 µM | 18.6 µM | 5.93 | 53.1 | 2.31 µM | 13.7 µM | 3.43 µM | 3.21 µM | 4.22 µM
6 | COc1ccc(/C=C/c2cnc3ccccc3n2)cc1OC | > 100 µM | > 100 µM | > 100 µM | > 100 µM | > 100 | 69.5 µM | > 100 µM | > 100 µM | > 100 µM | > 100 µM | – | – | – | – | – | – | – | – | – | –
7 | O=C1C2=C(c3ccccc31)C(c1ccc(F)cc1)N1C(=O)CCSC1=N2 (stereo not drawn) | > 100 µM | > 100 µM | > 100 µM | > 100 µM | > 100 | > 100 µM | > 100 µM | > 100 µM | > 100 µM | > 100 µM | – | – | – | – | – | – | – | – | – | –
8 | C[C@H]1CCC/C=C/[C@@H]2C[C@H](O)C[C@H]2[C@H](O)[C@@H](SC2OC(CO)C(O)C(O)C2O)CC(=O)O1 (stereo partly drawn) | 59.9 µM | > 100 µM | > 100 µM | > 100 µM | > 100 | > 100 µM | > 100 µM | > 100 µM | > 100 µM | > 100 µM | 25.1 µM | > 100 µM | > 100 µM | > 100 | > 100 | > 100 µM | 35 µM | 31.9 µM | > 100 µM | > 100 µM
9 | C[C@H]1CC2=CC(=O)CC[C@]2(C)[C@H]2CC[C@@]3(C)[C@@H](CC[C@]3(C)O)[C@H]12 | > 100 µM | > 100 µM | 77.2 µM | > 100 µM | > 100 | 75.5 µM | > 100 µM | > 100 µM | > 100 µM | > 100 µM | 42.5 µM | 27.6 µM | 24 µM | 11.3 | 28.2 | 28.4 µM | 34 µM | 32.5 µM | 39.4 µM | 41.6 µM
10 | CN(C)c1ccc(N=C(C#N)c2nc(N)nc(N3CCN(c4ccccc4)CC3)n2)cc1 | > 50 µM | > 50 µM | > 46.7 µM | > 50 µM | > 50 | > 50 µM | > 37.2 µM | > 50 µM | > 35.4 µM | > 50 µM | > 50 µM | 22.3 µM | 20.4 µM | > 30.1 | > 28.5 | > 50 µM | 18 µM | 18.4 µM | 16.6 µM | > 50 µM
11 | Cc1ccc([N+](=O)[O-])cc1NC(=O)C(=O)C1CCC2=C(Sc3ccccc3N2)C1=O (stereo not drawn) | > 100 µM | > 100 µM | > 100 µM | > 100 µM | > 100 | > 100 µM | > 100 µM | > 100 µM | > 100 µM | > 100 µM | – | – | – | – | – | – | – | – | – | –
12 | O=[N+]([O-])c1ccc(NC(=S)N/N=C(\c2ccccc2)c2ccccn2)cc1 | 2.17 µM and 2.49 µM | 2.62 µM and 2.39 µM | 3.02 µM and 2.97 µM | 3.45 µM and 2.19 µM | 2.71 | 4.2 µM and 1.48 µM | 1.06 µM and 1.42 µM | 2.9 µM and 3.33 µM | 4.09 µM and 2.95 µM | 2.83 µM | 1.01 µM | 1.34 µM | 1.36 µM | 1.87 | – | 1.97 µM | 0.0275 µM | 1.41 µM | 2.28 µM | –
13 | CC(=O)OCC(OC(C)=O)C(OC(C)=O)C(OC(C)=O)C(=O)CNn1c(-c2ccccc2Cl)nc2ccc(Br)cc2c1=O (stereo not drawn) | > 100 µM | > 100 µM | > 100 µM | > 100 µM | > 100 | > 100 µM | > 100 µM | > 100 µM | > 100 µM | > 100 µM | – | – | – | – | – | – | – | – | – | –
14 | c1ccc(-c2[nH]c(-c3ccccc3)c(-c3cnccn3)c2-c2cnccn2)cc1 | > 100 µM | > 100 µM | > 100 µM | > 100 µM | > 100 | > 100 µM | > 100 µM | > 100 µM | > 100 µM | > 100 µM | – | – | – | – | – | – | – | – | – | –
15 | CCOC(=O)/C(C#N)=C(N)/C(=N\Nc1cccc(C(F)(F)F)c1)C(=O)OCC | > 100 µM | > 100 µM | > 100 µM | > 100 µM | > 100 | > 100 µM | > 100 µM | > 100 µM | > 100 µM | > 100 µM | – | – | – | – | – | – | – | – | – | –
16 | O=C(Nc1ccccc1C(=O)O)C(=O)C(C(=O)c1ccccc1-c1ccccc1)C1OC(=O)c2ccccc21 (stereo not drawn) | 33.3 µM | 92.3 µM | > 100 µM | 58.6 µM | 30.6 | 30.6 µM | 37.9 µM | 35.8 µM | 94 µM | 39.1 µM | – | – | – | – | – | – | – | – | – | –
17 | O=C(Nc1cccc([N+](=O)[O-])c1)c1cc2ccccc2cc1O | 4.74 µM | 7.79 µM | 4.88 µM | 8.2 µM | 28.3 | 2.66 µM | 26.1 µM | 8.84 µM | 6.07 µM | 7.78 µM | 1.28 µM | 2.03 µM | 1.16 µM | 1.87 | 2.75 | 0.384 µM | 3.31 µM | 1.57 µM | 1.84 µM | 1.17 µM
18 | Cc1nc2sc(C(=O)Nc3cccc(Cl)c3C)c(N)c2cc1C(C)O (stereo not drawn) | > 49.2 µM | > 50.1 µM | > 100 µM | > 77 µM | > 39.6 | 5.96 µM | > 71.7 µM | 1.9 µM | > 61 µM | > 47.4 µM | 0.449 µM | 0.63 µM | 0.334 µM | 0.533 | 0.091 | 0.112 µM | 0.396 µM | 0.181 µM | 0.382 µM | 0.916 µM
19 | CC(=O)O[C@H]1C(=O)[C@@]2(C)C(C(OC(=O)c3ccccc3)[C@]3(O)CC(OC(=O)C(O)C(NC(=O)c4ccccc4)c4ccc(C)cc4)C(C)=C1C3(C)C)[C@]1(OC(C)=O)CO[C@@H]1C[C@@H]2O (stereo partly drawn) | 6.68 µM | > 25 µM | 12.1 µM | > 25 µM | 8.01 | 0.0396 µM | 1.01 µM | 0.0652 µM | 0.0962 µM | > 25 µM | – | – | – | – | – | – | – | – | – | –
20 | O=c1cccccc1NCCNc1cccccc1=O | > 100 µM | > 100 µM | > 100 µM | > 100 µM | > 100 | > 100 µM | > 100 µM | > 100 µM | > 100 µM | 27.9 µM | – | – | – | – | – | – | – | – | – | –
21 | Cn1c(O)c(N=NC(N)=S)c2ccccc21 | > 100 µM | > 100 µM | 91.7 µM | > 100 µM | > 100 | > 100 µM | > 100 µM | > 100 µM | > 100 µM | > 100 µM | 58.7 µM | 51.2 µM | 23.6 µM | 2.04 | 44.6 | 43.9 µM | 54.8 µM | > 100 µM | 66.8 µM | > 100 µM
22 | CC(C)(F)C[C@H](N[C@@H](c1ccc(-c2ccc(S(C)(=O)=O)cc2)cc1)C(F)(F)F)C(=O)NC1(C#N)CC1 | 55 µM and 87.8 µM | > 100 µM | 55 µM and > 100 µM | 55 µM | > 100 | 55 µM and > 100 µM | 55 µM and 63.8 µM | 31.8 µM and 53.2 µM | 55 µM and 70.7 µM | 55 µM and > 100 µM | 9.02 µM and 26.2 µM | > 55 µM and 39.5 µM | 18.7 µM and 27.4 µM | 30.7 | > 100 | 15.8 µM and 24.7 µM | 18 µM and 19.5 µM | 11.8 µM and 23.1 µM | 23 µM and 27.5 µM | 14.8 µM and 42.6 µM
23 | N[C@H](C(=O)O)[C@@H](Cl)CC(=O)O | > 100 µM | > 100 µM | > 100 µM | > 100 µM | > 100 | > 100 µM | > 100 µM | > 100 µM | > 100 µM | > 100 µM | – | – | – | – | – | – | – | – | – | –

— PubChem BioAssay (NCI)
